# According to patent US10722501B2 (BAYER AKTIENGESELLSCHAFT, priority 2016, dated 2020):
# Biological target: T1, recombinant full-length human prolyl endopeptidase (PREP) (Homo sapiens, UniProt P48147)
# T1 construct: To recombinant full-length human prolyl endopeptidase (PREP, R&D-Systems, 4308-SE); purchased R&D-Systems 4308-SE
# T1 sequence (P48147 1-710): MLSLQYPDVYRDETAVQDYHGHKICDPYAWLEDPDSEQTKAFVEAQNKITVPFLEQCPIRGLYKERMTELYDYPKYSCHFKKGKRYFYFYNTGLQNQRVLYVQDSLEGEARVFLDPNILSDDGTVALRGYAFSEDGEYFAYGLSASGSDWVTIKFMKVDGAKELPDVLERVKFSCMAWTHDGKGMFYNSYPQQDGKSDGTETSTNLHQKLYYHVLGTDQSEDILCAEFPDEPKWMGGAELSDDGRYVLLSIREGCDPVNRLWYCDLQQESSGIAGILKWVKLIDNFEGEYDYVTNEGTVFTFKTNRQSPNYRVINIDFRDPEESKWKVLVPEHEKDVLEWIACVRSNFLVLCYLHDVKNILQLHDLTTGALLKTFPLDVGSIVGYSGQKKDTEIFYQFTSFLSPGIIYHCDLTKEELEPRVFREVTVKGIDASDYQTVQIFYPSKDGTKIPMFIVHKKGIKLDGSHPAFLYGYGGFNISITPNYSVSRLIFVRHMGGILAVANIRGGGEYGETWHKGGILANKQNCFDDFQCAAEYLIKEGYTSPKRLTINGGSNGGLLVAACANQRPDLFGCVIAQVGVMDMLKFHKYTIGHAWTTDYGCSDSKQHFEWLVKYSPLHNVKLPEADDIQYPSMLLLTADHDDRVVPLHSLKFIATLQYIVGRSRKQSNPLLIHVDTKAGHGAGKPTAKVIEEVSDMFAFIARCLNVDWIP
# Assay: Biochemical human prolyl endopeptidase (PREP) assay with fluorescently labelled substrate
# Settings: substrate Z-Gly-Pro-AMC 50 μM, 32° C., 60 min; some as mean values from multiple independent determinations
# Summary of the method: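 Initial rates of fluorescence increase from 50 μM Z-Gly-Pro-AMC cleavage (ex 360/em 465 nm, 60 min, 32° C) give percent PREP activity versus no-compound control, and IC50 is interpolated. Enzyme used at 0.4 nM (final, example) in Tris pH 7.5 with EDTA, GSH, BSA and Brij-35; compounds span 1 nM to 30 μM.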
row,IC50,SMILES
1,0.2 nM,"O=C([C@@H]1CCCc2nn(Cc3ccc(C(F)(F)F)c(Cl)c3)c(=O)n21)N1CC(F)C1 [Example 459, (5S)-2-[3-Chloro-4-(trifluoromethyl)benzyl]-5-[(3-fluoroazetidin-1-yl)carbonyl]-5,6,7,8-tetrahydro[1,2,4]triazolo[4,3-a]pyridin-3(2H)-one]"
2,7.5 nM,"O=C(C1CCCc2nn(Cc3ccc(Cl)cn3)c(=O)n21)N1CCCC1 (single isomer, unassigned) [Example 34, (5RS)-2-[(5-Chloropyridin-2-yl)methyl]-5-(pyrrolidin-1-ylcarbonyl)-5,6,7,8-tetrahydro[1,2,4]triazolo[4,3-a]pyridin-3(2H)-one]"
3,0.535 nM,"O=C([C@@H]1CCCc2nn(Cc3ccc(Br)cn3)c(=O)n21)N1CC[C@H](F)C1 [Example 510, (5S)-2-[(5-Bromopyridin-2-yl)methyl]-5-{[(3S)-3-fluoropyrrolidin-1-yl]carbonyl}-5,6,7,8-tetrahydro[1,2,4]triazolo[4,3-a]pyridin-3(2H)-one]"
4,0.57 nM,"O=C([C@@H]1CCCc2nn(Cc3ccc(F)cc3)c(=O)n21)N1CC(F)C1 [Example 546, (5S)-5-[(3-Fluoroazetidin-1-yl)carbonyl]-2-(4-fluorobenzyl)-5,6,7,8-tetrahydro[1,2,4]triazolo[4,3-a]pyridin-3(2H)-one]"
5,0.35 nM,"O=C([C@@H]1CCC(F)(F)c2nn(Cc3ncc(C(F)(F)F)cc3Cl)c(=O)n21)N1CC[C@H](F)C1 [Example 589, (5S)-2-{[3-Chloro-5-(trifluoromethyl)pyridin-2-yl]methyl}-8,8-difluoro-5-{[(3S)-3-fluoropyrrolidin-1-yl]carbonyl}-5,6,7,8-tetrahydro[1,2,4]triazolo[4,3-a]pyridin-3(2H)-one]"
6,0.43 nM,"O=C([C@@H]1CCC(O)c2nn(Cc3ncc(F)cc3F)c(=O)n21)N1CC[C@H](F)C1 (mixture of isomers) [Example 585, (5S,8SR)-2-[(3,5-Difluoropyridin-2-yl)methyl]-5-{[(3S)-3-fluoropyrrolidin-1-yl]carbonyl}-8-hydroxy-5,6,7,8-tetrahydro[1,2,4]triazolo[4,3-a]pyridin-3(2H)-one]"
7,0.35 nM,"O=C([C@@H]1CCCc2nn(CC3(c4cccc(Cl)n4)CC3)c(=O)n21)N1CC[C@H](F)C1 [Example 350, (5S)-2-{[1-(6-Chloropyridin-2-yl)cyclopropyl]methyl}-5-{[(3S)-3-fluoropyrrolidin-1-yl]carbonyl}-5,6,7,8-tetrahydro[1,2,4]triazolo[4,3-a]pyridin-3(2H)-one]"
8,27.5 nM,"O=C([C@@H]1CCCc2nn(Cc3ccnc(C(F)(F)F)c3F)c(=O)n21)N1CC(O)C1 [Example 481, (5S)-2-{[3-Fluoro-2-(trifluoromethyl)pyridin-4-yl]methyl}-5-[(3-hydroxyazetidin-1-yl)carbonyl]-5,6,7,8-tetrahydro[1,2,4]triazolo[4,3-a]pyridin-3(2H)-one]"
9,8.8 nM,"O=C([C@@H]1CCCc2nn(Cc3ccc(F)nc3)c(=O)n21)N1CC(F)(F)C1 [Example 537, (5S)-5-[(3,3-Difluoroazetidin-1-yl)carbonyl]-2-[(6-fluoropyridin-3-yl)methyl]-5,6,7,8-tetrahydro[1,2,4]triazolo[4,3-a]pyridin-3(2H)-one]"
10,0.73 nM,"O=C([C@@H]1CCCc2nn(Cc3cccc(C(F)(F)F)c3)c(=O)n21)N1CCC(F)(F)C1 [Example 446, (5S)-5-[(3,3-Difluoropyrrolidin-1-yl)carbonyl]-2-[3-(trifluoromethyl)benzyl]-5,6,7,8-tetrahydro[1,2,4]triazolo[4,3-a]pyridin-3(2H)-one]"
11,15.2 nM,"Cc1ccc(C2(Cn3nc4n(c3=O)[C@H](C(=O)N3CC[C@H](O)C3)CCC4)CC2)cc1 [Example 525, (5S)-5-{[(3S)-3-Hydroxypyrrolidin-1-yl]carbonyl}-2-{[1-(4-methylphenyl)cyclopropyl]methyl}-5,6,7,8-tetrahydro[1,2,4]triazolo[4,3-a]pyridin-3(2H)-one]"
12,1.5 nM,"CC1CCC(C(=O)N2CC[C@H](F)C2)n2c1nn(Cc1ccc(C(F)(F)F)nc1)c2=O (mixture of isomers) [Example 220, (5RS,8RS)-5-{[(3S)-3-Fluoropyrrolidin-1-yl]carbonyl}-8-methyl-2-{[6-(trifluoromethyl)pyridin-3-yl]methyl}-5,6,7,8-tetrahydro[1,2,4]triazolo[4,3-a]pyridin-3(2H)-one]"
13,24.8 nM,"O=C(C1CCc2nn(Cc3ccnc(C(F)(F)F)c3F)c(=O)n21)N1CCC(F)(F)C1 (racemic) [Example 181, (5RS)-5-[(3,3-Difluoropyrrolidin-1-yl)carbonyl]-2-{[3-fluoro-2-(trifluoromethyl)pyridin-4-yl]methyl}-2,5,6,7-tetrahydro-3H-pyrrolo[2,1-c][1,2,4]triazol-3-one]"
14,120 nM,"CS(=O)(=O)c1ccc(Cn2nc3n(c2=O)C(C(=O)N2CCCC2)CCC3)cc1 (racemic) [Example 6, (5RS)-2-[4-(Methylsulphonyl)benzyl]-5-(pyrrolidin-1-ylcarbonyl)-5,6,7,8-tetrahydro[1,2,4]triazolo[4,3-a]pyridin-3(2H)-one]"
15,1.9 nM,"CC1CCC(C(=O)N2CCC(F)(F)C2)n2c1nn(Cc1ccc(F)cc1F)c2=O (racemic) [Example 327, (5RS,8RS)-2-(2,4-Difluorobenzyl)-5-[(3,3-difluoropyrrolidin-1-yl)carbonyl]-8-methyl-5,6,7,8-tetrahydro[1,2,4]triazolo[4,3-a]pyridin-3(2H)-one]"
16,0.17 nM,"O=C([C@@H]1CCCc2nn(Cc3ccc(C(F)(F)F)c(F)c3)c(=O)n21)N1CC(F)C1 [Example 473, (5S)-5-[(3-Fluoroazetidin-1-yl)carbonyl]-2-[3-fluoro-4-(trifluoromethyl)benzyl]-5,6,7,8-tetrahydro[1,2,4]triazolo[4,3-a]pyridin-3(2H)-one]"
17,115 nM,"O=C(C1C(C(F)(F)F)CCc2nn(Cc3ncc(Cl)cc3F)c(=O)n21)N1CCC(F)(F)C1 (single isomer, unassigned) [Example 297, (5RS,6RS)-2-[(5-Chloro-3-fluoropyridin-2-yl)methyl]-5-[(3,3-difluoropyrrolidin-1-yl)carbonyl]-6-(trifluoromethyl)-5,6,7,8-tetrahydro[1,2,4]triazolo[4,3-a]pyridin-3(2H)-one]"
18,3.3 nM,"O=C([C@@H]1CCC(F)(F)c2nn(Cc3ccc(C(F)(F)F)nc3)c(=O)n21)N1CC[C@H](F)C1 [Example 278, (5S)-8,8-Difluoro-5-{[(3S)-3-fluoropyrrolidin-1-yl]carbonyl}-2-{[6-(trifluoromethyl)pyridin-3-yl]methyl}-5,6,7,8-tetrahydro[1,2,4]triazolo[4,3-a]pyridin-3(2H)-one]"
19,28 nM,"O=C([C@@H]1CCCc2nn(Cc3ncccc3Cl)c(=O)n21)N1CC(F)(F)C1 [Example 394, (5S)-2-[(3-Chloropyridin-2-yl)methyl]-5-[(3,3-difluoroazetidin-1-yl)carbonyl]-5,6,7,8-tetrahydro[1,2,4]triazolo[4,3-a]pyridin-3(2H)-one]"
20,3.9 nM,"O=C([C@@H]1CCC(F)(F)c2nn(Cc3ncc(C(F)(F)F)cc3Cl)c(=O)n21)N1CCC(F)(F)C1 [Example 590, (5S)-2-{[3-Chloro-5-(trifluoromethyl)pyridin-2-yl]methyl}-5-[(3,3-difluoropyrrolidin-1-yl)carbonyl]-8,8-difluoro-5,6,7,8-tetrahydro[1,2,4]triazolo[4,3-a]pyridin-3(2H)-one]"
21,2.8 nM,"O=C(C1CC(C(F)(F)F)Cc2nn(Cc3ncc(Cl)cc3F)c(=O)n21)N1CC[C@H](F)C1 (mixture of isomers) [Example 263, (5RS,7RS)-2-[(5-Chloro-3-fluoropyridin-3-yl)methyl]-5-{[(3S)-3-fluoropyrrolidin-1-yl]carbonyl}-7-(trifluoromethyl)-5,6,7,8-tetrahydro[1,2,4]triazolo[4,3-a]pyridin-3(2H)-one]"
22,3 nM,"O=C(C1C(C(F)(F)F)CCc2nn(Cc3ccc(C(F)(F)F)nc3)c(=O)n21)N1CC[C@H](F)C1 (mixture of isomers) [Example 284, (5RS,6RS)-5-{[(3S)-3-Fluoropyrrolidin-1-yl]carbonyl}-6-(trifluoromethyl)-2-{[6-(trifluoromethyl)pyridin-3-yl]methyl}-5,6,7,8-tetrahydro[1,2,4]triazolo[4,3-a]pyridin-3(2H)-one]"
23,1.1 nM,"O=C([C@@H]1CCCc2nn(Cc3cncc(C(F)(F)F)c3)c(=O)n21)N1CCC(F)(F)C1 [Example 579, (5S)-5-[(3,3-Difluoropyrrolidin-1-yl)carbonyl]-2-{[5-(trifluoromethyl)pyridin-3-yl]methyl}-5,6,7,8-tetrahydro[1,2,4]triazolo[4,3-a]pyridin-3(2H)-one]"
